# Like-named read-outs stand apart in the source and are kept apart here.
# Columns and labels:
# Assay type in all cases: cell-based
# [1] = system: LAPC4 prostate cancer cells; assay: Antiproliferative effects in LAPC4 cells (CellTiter Glo); settings: LAPC4 cells (AKT1 E17K allele), read-out: LAPC4 proliferation IC50
# Summary of the method: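 Growth inhibition is gauged by intracellular ATP content, measured with CellTiter Glo 72 h after compound addition to 1,000 seeded cells per well. IC50 derives from a Hill equation fit.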
# AKT2 = target: T1, AKT2 (Homo sapiens, UniProt P31751); assay: Live cell AKT2 target engagement by NanoBRET competitive probe displacement; settings: HEK293 cells transfected with kinase-NanoLuciferase fusion, 2 h at 37° C.
# T1 construct: expressed in transfected cells; host or cells: HEK293
# Procedure: Determining Live Cell AKT1 E17K, AKT1 WT, and AKT2 Target Engagement by NanoBRET Competitive Probe Displacement.
# Live cell target engagement assays were performed as described (Vasta, J. D. et al. Cell Chem Biol 2018, 25(11), 206-214). Briefly, HEK293 cells were transfected with plasmids encoding kinase-NanoLuciferase fusion proteins overnight. Cells were then treated with serial dilutions of compound and an ˜EC50 concentration of fluorescently-tagged ATP-competitive tracer (Promega). After incubation for 2 h at 37° C., luciferase substrate and extracellular luciferase inhibitor were added to all wells, and luminescent intensity at 460 nm and 600 nm were measured on a multimode plate-reader. The ratio of E600/E460 was calculated to give the tracer engagement signal (BRET). IC50 values were calculated by fitting BRET values to a log(inhibitor) vs. response Hill equation.
# AKT1 E17K = target: T2, AKT1 E17K (Homo sapiens, UniProt P31749, E17K); assay: Live cell AKT1 E17K target engagement by NanoBRET competitive probe displacement; settings: HEK293 cells transfected with kinase-NanoLuciferase fusion, 2 h at 37° C.
# T2 construct: expressed in transfected cells; host or cells: HEK293
# Summary of the method: (§1)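 Steps: overnight transfection of HEK293 with kinase-NanoLuc plasmids; addition of compound dilutions and tracer (~EC50); 2 h incubation at 37 °C; substrate plus extracellular luciferase inhibitor; luminescence at 460 and 600 nm. IC50 values came from fitting the BRET ratio to a Hill equation.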
# AKT1 WT = target: T3, AKT1 WT (Homo sapiens, UniProt P31749); assay: Live cell AKT1 WT target engagement by NanoBRET competitive probe displacement; settings: HEK293 cells transfected with kinase-NanoLuciferase fusion, 2 h at 37° C.
# T3 construct: expressed in transfected cells; host or cells: HEK293
# Summary of the method: as §1
# T3 sequence (P31749 whole entry, the tested form may be a part): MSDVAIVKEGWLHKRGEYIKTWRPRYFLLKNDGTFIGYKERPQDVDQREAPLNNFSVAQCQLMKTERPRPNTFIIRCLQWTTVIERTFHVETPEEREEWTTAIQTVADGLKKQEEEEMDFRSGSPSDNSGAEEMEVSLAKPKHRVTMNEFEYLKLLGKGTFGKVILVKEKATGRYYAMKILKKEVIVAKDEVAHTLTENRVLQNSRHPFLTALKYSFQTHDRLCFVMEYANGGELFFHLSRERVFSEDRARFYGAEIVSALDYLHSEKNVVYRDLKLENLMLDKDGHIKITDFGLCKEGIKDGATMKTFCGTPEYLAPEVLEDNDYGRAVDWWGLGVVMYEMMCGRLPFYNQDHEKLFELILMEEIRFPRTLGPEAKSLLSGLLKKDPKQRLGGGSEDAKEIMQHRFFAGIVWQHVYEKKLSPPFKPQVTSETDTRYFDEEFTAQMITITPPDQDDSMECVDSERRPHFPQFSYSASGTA
# T2 sequence (P31749 whole entry E17K, the tested form may be a part): as the sequence (P31749 whole entry, the tested form may be a part) above, with E17K counted along it
# T1 sequence (P31751 whole entry, the tested form may be a part): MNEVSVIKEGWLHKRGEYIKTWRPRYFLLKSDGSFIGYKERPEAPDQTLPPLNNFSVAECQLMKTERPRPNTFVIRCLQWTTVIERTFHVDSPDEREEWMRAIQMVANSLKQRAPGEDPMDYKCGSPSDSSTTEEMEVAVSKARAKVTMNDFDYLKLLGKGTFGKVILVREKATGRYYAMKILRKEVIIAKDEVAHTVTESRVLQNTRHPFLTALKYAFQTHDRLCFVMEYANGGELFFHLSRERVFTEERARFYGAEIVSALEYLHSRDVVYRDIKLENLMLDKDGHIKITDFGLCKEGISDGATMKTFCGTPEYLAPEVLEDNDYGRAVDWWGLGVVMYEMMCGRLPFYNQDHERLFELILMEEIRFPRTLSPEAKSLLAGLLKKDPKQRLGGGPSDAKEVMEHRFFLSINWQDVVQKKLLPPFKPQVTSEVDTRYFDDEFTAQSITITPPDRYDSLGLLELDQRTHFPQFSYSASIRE
"IC50 ([1]; Homo sapiens, LAPC4, 72 h)",IC50 (AKT2),IC50 (AKT1 E17K),IC50 (AKT1 WT),IC50 ([1]; 72 h),Compound
271 nM,123 nM,17.9 nM,820 nM,–,"C=CC(=O)N1CCC(N[C@H]2CCc3cc(-n4c(-c5cccnc5N)nc5ccc(C6CC6)nc54)ccc32)C(F)C1 (mixture of isomers) [Example 175, 1-(4-(((S)-5-(2-(2-aminopyridin-3-yl)-5-cyclopropyl-3H-imidazo[4,5-b]pyridin-3-yl)-2,3-dihydro-1H-inden-1-yl)amino)-3-fluoropiperidin-1-yl)prop-2-en-1-one]"
247 nM,346 nM,86.3 nM,17.9 nM,–,"C=CC(=O)N1CCN(NC2CCc3cc(-n4c(-c5cccnc5N)nc5ccc(-n6cccn6)nc54)ccc32)CC1 (racemic) [Example 77, 1-[4-({5-[2-(2-aminopyridin-3-yl)-5-(pyrazol-1-yl)imidazo[4,5-b]pyridin-3-yl]-2,3-dihydro-1H-inden-1-yl}amino)piperazin-1-yl]prop-2-en-1-one]"
–,2570 nM,548 nM,200 nM,4270 nM,"C=CC(=O)NC1CCC(N[C@H]2CCc3cc(-n4c(-c5cccnc5N)nc5ccc(-n6cccn6)nc54)ccc32)CC1 (single isomer, unassigned) [Example 47, N-((1*,4*)-4-(((S)-5-(2-(2-aminopyridin-3-yl)-5-(1H-pyrazol-1-yl)-3H-imidazo[4,5-b]pyridin-3-yl)-2,3-dihydro-1H-inden-1-yl)amino)cyclohexyl)acrylamide]"
–,1280 nM,799 nM,111 nM,1400 nM,"C=CC(=O)NC1CCC(N[C@H]2CCc3cc(-n4c(-c5cccnc5N)nc5ccc(-n6cccn6)nc54)ccc32)CC1 (single isomer, unassigned) [Example 48, N-((1*,4*)-4-(((S)-5-(2-(2-aminopyridin-3-yl)-5-(1H-pyrazol-1-yl)-3H-imidazo[4,5-b]pyridin-3-yl)-2,3-dihydro-1H-inden-1-yl)amino)cyclohexyl)acrylamide]"
–,3940 nM,> 1000 nM,407 nM,2850 nM,"C=CC(=O)N1CCOCC(N[C@H]2CCc3cc(-n4c(-c5cccnc5N)nc5ccc(-n6cccn6)nc54)ccc32)C1 (single isomer, unassigned) [Example 53, 1-((*)-6-(((S)-5-(2-(2-aminopyridin-3-yl)-5-(1H-pyrazol-1-yl)-3H-imidazo[4,5-b]pyridin-3-yl)-2,3-dihydro-1H-inden-1-yl)amino)-1,4-oxazepan-4-yl)prop-2-en-1-one]"
–,292 nM,58.5 nM,27.1 nM,107 nM,"C=CC(=O)N1CCOCC(N[C@H]2CCc3cc(-n4c(-c5cccnc5N)nc5ccc(-n6cccn6)nc54)ccc32)C1 (single isomer, unassigned) [Example 54, 1-((*)-6-(((S)-5-(2-(2-aminopyridin-3-yl)-5-(1H-pyrazol-1-yl)-3H-imidazo[4,5-b]pyridin-3-yl)-2,3-dihydro-1H-inden-1-yl)amino)-1,4-oxazepan-4-yl)prop-2-en-1-one]"
–,1120 nM,215 nM,93.7 nM,617 nM,"C=CC(=O)N1CCC(N[C@H]2CCc3cc(-n4c(-c5cccnc5N)nc5ccc(-n6cccn6)nc54)ccc32)C(F)(F)C1 (single isomer, unassigned) [Example 55, 1-((*)-4-(((S)-5-(2-(2-aminopyridin-3-yl)-5-(1H-pyrazol-1-yl)-3H-imidazo[4,5-b]pyridin-3-yl)-2,3-dihydro-1H-inden-1-yl)amino)-3,3-difluoropiperidin-1-yl)prop-2-en-1-one]"
–,104 nM,23.9 nM,6.71 nM,144 nM,"C=CC(=O)N1CCC(N[C@H]2CCc3cc(-n4c(-c5cccnc5N)nc5ccc(-n6cccn6)nc54)ccc32)C(F)(F)C1 (single isomer, unassigned) [Example 56, 1-((*)-4-(((S)-5-(2-(2-aminopyridin-3-yl)-5-(1H-pyrazol-1-yl)-3H-imidazo[4,5-b]pyridin-3-yl)-2,3-dihydro-1H-inden-1-yl)amino)-3,3-difluoropiperidin-1-yl)prop-2-en-1-one]"
–,84.6 nM,21.9 nM,10.4 nM,104 nM,"C=CC(=O)N1CCC(N[C@H]2CCc3cc(-n4c(-c5cccnc5N)nc5ccc(-n6cccn6)nc54)ccc32)C1 (single isomer, unassigned) [Example 57, 1-((*)-3-(((S)-5-(2-(2-aminopyridin-3-yl)-5-(1H-pyrazol-1-yl)-3H-imidazo[4,5-b]pyridin-3-yl)-2,3-dihydro-1H-inden-1-yl)amino)pyrrolidin-1-yl)prop-2-en-1-one]"
–,1030 nM,189 nM,50.2 nM,438 nM,"C=CC(=O)N1CCC(N[C@H]2CCc3cc(-n4c(-c5cccnc5N)nc5ccc(-n6cccn6)nc54)ccc32)C1 (single isomer, unassigned) [Example 58, 1-((*)-3-(((S)-5-(2-(2-aminopyridin-3-yl)-5-(1H-pyrazol-1-yl)-3H-imidazo[4,5-b]pyridin-3-yl)-2,3-dihydro-1H-inden-1-yl)amino)pyrrolidin-1-yl)prop-2-en-1-one]"
–,31.7 nM,8.39 nM,9.35 nM,17.1 nM,"C=CC(=O)N1CCC(N[C@H]2CCc3cc(-n4c(-c5cccnc5N)nc5ccc(-n6cccn6)nc54)ccc32)C[C@H]1C (single isomer, unassigned) [Example 62, 1-((2R,4*)-4-(((S)-5-(2-(2-aminopyridin-3-yl)-5-(1H-pyrazol-1-yl)-3H-imidazo[4,5-b]pyridin-3-yl)-2,3-dihydro-1H-inden-1-yl)amino)-2-methylpiperidin-1-yl)prop-2-en-1-one]"
–,248 nM,47.5 nM,24.1 nM,124 nM,"C=CC(=O)N1CCC(N[C@H]2CCc3cc(-n4c(-c5cccnc5N)nc5ccc(-n6cccn6)nc54)ccc32)C[C@H]1C (single isomer, unassigned) [Example 63, 1-((2R,4*)-4-(((S)-5-(2-(2-aminopyridin-3-yl)-5-(1H-pyrazol-1-yl)-3H-imidazo[4,5-b]pyridin-3-yl)-2,3-dihydro-1H-inden-1-yl)amino)-2-methylpiperidin-1-yl)prop-2-en-1-one]"
–,397 nM,58.3 nM,29.6 nM,203 nM,"C=CC(=O)N1CCC(N[C@H]2CCc3cc(-n4c(-c5cccnc5N)nc5ccc(-n6cccn6)nc54)ccc32)C[C@@H]1C (single isomer, unassigned) [Example 65, 1-((2S,4*)-4-(((S)-5-(2-(2-aminopyridin-3-yl)-5-(1H-pyrazol-1-yl)-3H-imidazo[4,5-b]pyridin-3-yl)-2,3-dihydro-1H-inden-1-yl)amino)-2-methylpiperidin-1-yl)prop-2-en-1-one]"
–,51.5 nM,29.6 nM,12.1 nM,68 nM,"C=CC(=O)N1CCC(N[C@H]2CCc3cc(-n4c(-c5cccnc5N)nc5ccc(-n6cccn6)nc54)ccc32)C[C@@H]1C (single isomer, unassigned) [Example 66, 1-((2S,4*)-4-(((S)-5-(2-(2-aminopyridin-3-yl)-5-(1H-pyrazol-1-yl)-3H-imidazo[4,5-b]pyridin-3-yl)-2,3-dihydro-1H-inden-1-yl)amino)-2-methylpiperidin-1-yl)prop-2-en-1-one]"

Compound,"IC50 ([1]; Homo sapiens, LAPC4, 72 h)",IC50 (AKT2),IC50 (AKT1 E17K),IC50 (AKT1 WT),IC50 ([1]; 72 h)
"C=CC(=O)N1C[C@H]2C[C@@H](C1)C2N[C@H]1CCc2cc(-n3c(-c4cccnc4N)nc4ccc(-n5cccn5)nc43)ccc21 (single isomer, unassigned) [Example 59, 1-((1R,5S,6*)-6-(((S)-5-(2-(2-aminopyridin-3-yl)-5-(1H-pyrazol-1-yl)-3H-imidazo[4,5-b]pyridin-3-yl)-2,3-dihydro-1H-inden-1-yl)amino)-3-azabicyclo[3.1.1]heptan-3-yl)prop-2-en-1-one]",–,648 nM,242 nM,44.8 nM,377 nM
"C=CC(=O)N1C[C@H]2C[C@@H](C1)C2N[C@H]1CCc2cc(-n3c(-c4cccnc4N)nc4ccc(-n5cccn5)nc43)ccc21 (single isomer, unassigned) [Example 60, 1-((1R,5S,6*)-6-(((S)-5-(2-(2-aminopyridin-3-yl)-5-(1H-pyrazol-1-yl)-3H-imidazo[4,5-b]pyridin-3-yl)-2,3-dihydro-1H-inden-1-yl)amino)-3-azabicyclo[3.1.1]heptan-3-yl)prop-2-en-1-one]",–,1680 nM,406 nM,> 1000 nM,1380 nM

# — US12570655B2, “Cysteine covalent modifiers of AKT1 and uses thereof” (Terremoto Biosciences, Inc., priority 2023, dated 2026)
